Laboratory results as given in patent US10532040B2, “Methods of treating cancer with herbacetin” (REGENTS OF THE UNIVERSITY OF MINNESOTA, priority 2011, dated 2020).

Legend:
[1] = system: JB6 mouse epidermal skin cells; experiment: proliferation and colony formation of JB6 mouse epidermal skin cells; format: cell-based; settings: preliminary data
Description: FIGS. 3A-3H. Anticancer effect of herbacetin. (a) The effect of herbacetin on ODC activity in colon cancer cell lines was measured as the release of CO2 from L-[1-C^14] ornithine. […] (b) The effect of herbacetin and DFMO on the growth of colon cancer cells and (c) TPA-induced JB6 cell growth was compared. Cells were incubated for 72 h and growth was estimated using the MTS assay. (d) The effect of herbacetin on anchorage independent HCT116 colon cancer cell growth and (e) TPA-induced JB6 cell transformation was assessed. Cells were incubated for 2 weeks and then colonies were counted using a microscope and the Image-Pro PLUS (v.6) computer software program. The effect of herbacetin on AP-1 reporter activity in (f) HCT116 colon cancer cells and (g) TPA-induced AP-1 reporter activity in JB6 mouse epidermal cells was analyzed using the substrates included in the reporter assay system. Data are represented as means±S.D. of triplicate values from three independent experiments and the asterisk (*) indicates a significant (p<0.05) effect of herbacetin or DFMO compared to untreated or TPA-treated controls. (h) The effect of herbacetin on the phosphorylation of ERK1 and ERK2 in HCT116 colon cancer cells was determined by Western blotting. Similar results were observed from two independent experiments.

[2] = system: SKH-1 hairless mice, DMBA/TPA-induced skin tumors; experiment: DMBA/TPA two-stage skin carcinogenesis mouse model, 20 weeks; format: in vivo
Text: Hairless SKH:HR-1-hrBr (SKH-1) mice were obtained from Charles River and were maintained under “specific pathogen-free” conditions following the guidelines established by the University of Minnesota Institutional Animal Care and Use Committee. Mice (8˜9 weeks old) were divided into five groups: 1) DMBA+vehicle group (n=20); 2) DMBA-initiated (200 nmol) and TPA-promoted group (17 nmol; n=20); 3) DMBA/TPA+100 nmol of herbacetin (n=20) group; 4) DMBA/TPA+500 nmol of herbacetin group (n=20); 5) DMBA+500 nmol of herbacetin group (n=20). One week after initiation, 17 nmol of TPA in acetone was topically applied twice weekly until the termination of the experiment at 20 weeks. When used, each dose of herbacetin was dissolved in 0.2 ml of 10% H2O in acetone and then topically applied to dorsal mouse skin at 30 min before TPA treatment. The number and volume of tumors per mouse was recorded weekly. The results are expressed as the percent of mice with tumors (incidence), average tumor volumes (size) and average number of tumors per mouse (multiplicity).

[3] = molecular target: T1, ODC (WT, D44A, D243A, E384A) (Homo sapiens, UniProt P11926, D44A); experiment: activity of ectopically expressed ODC (WT, D44A, D243A, E384A); format: cell-based; settings: D44A vs D243A, E384A or wildtype ODC
T1 construct: expressed in transfected cells; host or cells: HCT116 colon cancer cells
T1 sequence (P11926 1-461 D44A): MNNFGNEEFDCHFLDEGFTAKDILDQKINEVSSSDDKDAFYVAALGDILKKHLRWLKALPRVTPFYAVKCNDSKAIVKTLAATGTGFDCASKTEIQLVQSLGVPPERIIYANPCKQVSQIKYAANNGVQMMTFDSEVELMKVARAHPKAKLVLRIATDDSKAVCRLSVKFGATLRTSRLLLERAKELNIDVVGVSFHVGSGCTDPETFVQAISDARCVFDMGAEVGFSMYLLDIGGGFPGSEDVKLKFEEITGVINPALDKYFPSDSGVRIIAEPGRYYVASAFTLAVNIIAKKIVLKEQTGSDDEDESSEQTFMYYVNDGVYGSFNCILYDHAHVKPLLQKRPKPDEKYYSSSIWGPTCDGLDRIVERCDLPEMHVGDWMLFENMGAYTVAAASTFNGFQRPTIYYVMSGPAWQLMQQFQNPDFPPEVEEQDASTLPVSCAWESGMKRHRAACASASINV
Description: FIGS. 1A-1H. Herbacetin binds directly to ODC and inhibits ODC activity. (a) Chemical structure of herbacetin, a new allosteric ODC inhibitor. (b) Computer modeling of herbacetin and the ODC protein crystal structure. […] (c, upper panel) Recombinant ODC, (c, lower panel) HCT116 colon cancer cell lysate or (d) ectopically expressed ODC (WT, mutant D44A, D243A and E384A) cells were incubated with herbacetin-conjugated Sepharose 4B beads or with Sepharose 4B beads alone. Proteins were pulled down using anti-Xpress and then analyzed by Western blotting. The effect of herbacetin on ODC activity was assessed using a (e) recombinant ODC protein, (f) HCT116 colon cancer cells, or (g) TPA-treated JB6 mouse skin epidermal cells. (h) The effect of herbacetin on ectopically expressed ODC (WT, D44A, D243A, E384A) activity was measured as the release of CO2 from L-[1-C^14] ornithine. For e-h, data are represented as means±S.D. of values from triplicate experiments and the asterisk (*) indicates a significant difference (p<0.05) between herbacetin- or DFMO-treated samples compared to untreated controls. WB, Western blot.
ODC activity was measured as the release of CO2 from L-[1-C^14] ornithine as previously described ([…]).

C57BL/6J-ApcMin+ mice = experiment: APCMin+ mouse colon cancer prevention pilot study, IP, 15 weeks; format: in vivo
Description: The anti-cancer effect of herbacetin in vivo has also been shown. Herbacetin prevents colon cancer development in […]57BL/6J-ApcMin+ were divided into […] and injected IP with vehicle or 1 of 2 amounts of herbacetin in vehicle. The doses included 0, 0.4, or 2 mg/kg B.W. herbacetin injected IP (n=15 total, 5 per group; Table 1). APC-min mice were 5 weeks old at the beginning of the study and received herbacetin for 15 weeks 5 days/week.

APC^min+ mice = experiment: APC^min+ mouse model, 8 weeks; format: in vivo
Text: Male C57BL/6J^(Min/+) mice were obtained from Jackson Laboratory and maintained under “specific pathogen-free” conditions according to the guidelines established by the University of Minnesota Institutional Animal Care and Use Committee. APC^min+ male mice were bred with C57BL/6J APC wildtype female mice. The progeny were genotyped by PCR assay to determine whether they were heterozygous for the min allele or were homozygous wildtype. APC^min+ male or female progeny were randomly assigned to groups after weaning at 3 weeks. Mice (5˜6 weeks old) were divided into 4 groups: 1) untreated vehicle group (n=12); 2) mice treated with 0.4 mg herbacetin/kg of body weight (n=13); 3) mice treated with 2 mg herbacetin/kg of body weight (n=13); and mice treated with 100 mg difluoromethylornithine (DFMO)/kg of body weight (n=10). Herbacetin, DFMO, or vehicle was injected 3 times a week for 8 weeks.

[4] = herbacetin 100 or 500 nmol topical before TPA, relative to TPA-treated group
[5] = 0.4 or 2 mg/kg BW IP, 15 weeks, 5 days/week
[6] = herbacetin 0.4 or 2 mg/kg, DFMO 100 mg/kg, 3 times/week for 8 weeks, vs vehicle

O=c1c(O)c(-c2ccc(O)cc2)oc2c(O)c(O)cc(O)c12 [herbacetin, 3,5,7,8,4′-Pentahydroxyflavone]
cell proliferation and anchorage independent colony formation [1]: decrease cell proliferation and anchorage independent colony formation | tumors in herbacetin only (no TPA) group ([2]; DMBA + 500 nmol herbacetin, no TPA): No tumors were observed | ODC activity in skin tumors ([2]; TPA-induced skin tumor tissue): significantly inhibited ODC activity | number of skin tumors [2, 4]: strongly suppressed | volume of skin tumors [2, 4]: strongly suppressed | ODC downstream proteins such as ERK and RSK in skin tumors ([2]; immunoblot of TPA-induced skin tumors): strongly suppressed | susceptibility of ODC D44A mutant activity to herbacetin [3]: less susceptible | colon tumor number (C57BL/6J-ApcMin+ mice; [5]): fewer | colon tumor size (C57BL/6J-ApcMin+ mice; [5]): smaller | body weight (C57BL/6J-ApcMin+ mice; APCMin+ mice): no effect | anemia (bloody stools) (APC^min+ mice; 0.4 or 2 mg/kg, 8 weeks): seemed to reduce anemia | tolerability: signs of toxicity, body weight loss (APC^min+ mice; 8 weeks treatment): without overt signs of toxicity or significant body weight loss | polyp number (APC^min+ mice; [6]): significantly suppressed | polyp size (APC^min+ mice; [6]): significantly suppressed | overall appearance of mice (APC^min+ mice; vs vehicle- or DFMO-treated mice): appeared healthier
